# Measured values taken from article PMC11807261 (ACS infectious diseases, 2022).
# System: GDI-KD-9, the Mtb H37Ra-derived glnA1 knockdown mutant
# Assay type: cell-based, Mycobacterium tuberculosis
SMILES,GIC shift (times more sensitive),GIC shift caused by the reduction of glnA1 expression,level at which growth inhibition saturates [% full scale],growth inhibition at high concentrations
COc1ccc2cc(-c3nc(C(C)(C)C)[nH]c3-c3ccnc(N)c3)ccc2c1 [11a],3.6 times,3- to 4 fold,20,–
"C[C@]1(O)C[C@@H](c2nc(-c3ccc4ccc(-c5ccccc5)nc4c3)c3c(N)nccn32)C1 [LIN, linsitinib]",–,–,20,–
"CS(=N)(=O)CCC(N)C(=O)O [MSO, L-methionine S-sulfoximine]",–,16 fold,–,inhibits the growth completely
"CO[C@H]1/C=C/O[C@@]2(C)Oc3c(C)c(O)c4c(O)c(c(/C=N/N5CCN(C)CC5)c(O)c4c3C2=O)NC(=O)/C(C)=C\C=C\[C@H](C)[C@H](O)[C@@H](C)[C@@H](O)[C@@H](C)[C@H](OC(C)=O)[C@@H]1C [RIF, rifampicin]",did not show any GIC shift,remained susceptible,–,–
